Assay [1] has as its target Hepatocyte growth factor receptor (Homo sapiens) (UniProt P08581). Nature of the assay: Inhibition of human MET cytoplasmic domain expressed in baculovirus assessed as substrate phosphorylation using fluorescence-labelled peptides as substrate at 0.2 uM after 90 mins by microfluidic peptide phosphorylation assay.
In assay [2] the target is Epidermal growth factor receptor (Homo sapiens) (UniProt P00533). As to the kind of experiment: Inhibition of human EGFR catalytic domain expressed in baculovirus assessed as substrate phosphorylation using fluorescence-labelled peptides as substrate at 95 uM after 90 mins by microfluidic peptide phosphorylation assay.
Chain of Epidermal growth factor receptor (Homo sapiens) (P00533 whole entry, the tested form may be a part): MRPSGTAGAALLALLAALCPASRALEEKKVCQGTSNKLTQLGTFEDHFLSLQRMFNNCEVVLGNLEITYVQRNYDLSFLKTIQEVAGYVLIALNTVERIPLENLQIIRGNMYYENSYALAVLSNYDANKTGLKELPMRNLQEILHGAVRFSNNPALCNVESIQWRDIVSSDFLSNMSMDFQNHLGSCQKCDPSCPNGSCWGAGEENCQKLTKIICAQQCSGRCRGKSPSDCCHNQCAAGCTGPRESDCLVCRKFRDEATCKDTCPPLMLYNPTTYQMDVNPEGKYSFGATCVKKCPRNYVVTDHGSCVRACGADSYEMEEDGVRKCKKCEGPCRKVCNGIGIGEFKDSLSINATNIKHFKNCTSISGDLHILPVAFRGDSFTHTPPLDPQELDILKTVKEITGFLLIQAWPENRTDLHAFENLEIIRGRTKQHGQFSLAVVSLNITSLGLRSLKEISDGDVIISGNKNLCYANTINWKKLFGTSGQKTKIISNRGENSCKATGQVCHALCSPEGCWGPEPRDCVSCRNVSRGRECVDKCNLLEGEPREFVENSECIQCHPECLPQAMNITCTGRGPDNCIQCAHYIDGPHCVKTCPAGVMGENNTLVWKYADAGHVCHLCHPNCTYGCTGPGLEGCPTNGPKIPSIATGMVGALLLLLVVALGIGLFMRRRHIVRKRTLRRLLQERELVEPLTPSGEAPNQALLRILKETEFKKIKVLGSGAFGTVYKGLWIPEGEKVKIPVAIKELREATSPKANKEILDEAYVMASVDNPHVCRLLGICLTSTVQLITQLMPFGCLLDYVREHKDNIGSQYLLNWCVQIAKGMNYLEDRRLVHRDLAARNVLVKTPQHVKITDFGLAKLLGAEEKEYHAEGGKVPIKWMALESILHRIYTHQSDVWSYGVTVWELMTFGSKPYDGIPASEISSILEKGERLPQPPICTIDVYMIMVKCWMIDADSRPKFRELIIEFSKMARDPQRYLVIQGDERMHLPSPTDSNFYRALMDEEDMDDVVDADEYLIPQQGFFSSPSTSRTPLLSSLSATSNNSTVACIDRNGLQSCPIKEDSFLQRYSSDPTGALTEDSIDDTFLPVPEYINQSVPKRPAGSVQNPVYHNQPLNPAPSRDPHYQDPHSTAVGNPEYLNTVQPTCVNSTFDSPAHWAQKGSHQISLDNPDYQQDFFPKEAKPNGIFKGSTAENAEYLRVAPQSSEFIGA
In assay [3] the test system is T1, Receptor-type tyrosine-protein kinase FLT3 (Homo sapiens), P36888 [D835Y].
T1 sequence (whole entry): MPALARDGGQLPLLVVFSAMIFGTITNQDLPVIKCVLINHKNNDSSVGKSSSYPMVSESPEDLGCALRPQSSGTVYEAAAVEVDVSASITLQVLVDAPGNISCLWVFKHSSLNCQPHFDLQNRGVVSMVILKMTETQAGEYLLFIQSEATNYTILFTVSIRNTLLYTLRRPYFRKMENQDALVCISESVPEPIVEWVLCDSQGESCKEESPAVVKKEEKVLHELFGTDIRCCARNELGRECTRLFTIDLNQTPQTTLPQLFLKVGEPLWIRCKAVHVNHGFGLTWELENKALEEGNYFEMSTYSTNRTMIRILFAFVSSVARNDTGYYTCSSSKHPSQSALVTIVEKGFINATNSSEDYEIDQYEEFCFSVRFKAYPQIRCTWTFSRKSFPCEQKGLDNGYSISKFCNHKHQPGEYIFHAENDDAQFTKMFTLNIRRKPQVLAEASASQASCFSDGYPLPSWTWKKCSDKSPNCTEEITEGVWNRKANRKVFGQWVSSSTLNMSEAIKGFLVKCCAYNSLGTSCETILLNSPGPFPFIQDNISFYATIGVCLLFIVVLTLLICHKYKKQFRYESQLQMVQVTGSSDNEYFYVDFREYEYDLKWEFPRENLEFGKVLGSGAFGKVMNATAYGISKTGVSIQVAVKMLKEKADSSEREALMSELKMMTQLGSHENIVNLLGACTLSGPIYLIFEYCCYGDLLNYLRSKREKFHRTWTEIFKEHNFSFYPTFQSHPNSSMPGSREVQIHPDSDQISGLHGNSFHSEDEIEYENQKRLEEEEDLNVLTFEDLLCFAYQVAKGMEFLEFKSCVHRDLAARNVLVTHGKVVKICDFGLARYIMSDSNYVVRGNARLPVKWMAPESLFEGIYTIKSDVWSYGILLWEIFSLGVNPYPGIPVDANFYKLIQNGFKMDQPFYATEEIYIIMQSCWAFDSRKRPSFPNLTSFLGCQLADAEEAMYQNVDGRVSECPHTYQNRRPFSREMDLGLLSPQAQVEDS
Nature of the assay: Inhibition of human FLT3 D835Y mutant catalytic domain expressed in baculovirus assessed as substrate phosphorylation using fluorescence-labelled peptides as substrate at 95 uM after 90 mins by microfluidic peptide phosphorylation assay.

Assay [4] concerns the target Ribosomal protein S6 kinase alpha-5 (Homo sapiens) (UniProt O75582). As to the kind of experiment: Inhibition of human full length MSK1 expressed in baculovirus assessed as substrate phosphorylation using fluorescence-labelled peptides as substrate at […] after 90 mins by microfluidic peptide phosphorylation assay.
The target in assay [5] is T2, Serine/threonine-protein kinase D2 (Homo sapiens) (UniProt Q9BZL6).
T2 sequence (whole entry): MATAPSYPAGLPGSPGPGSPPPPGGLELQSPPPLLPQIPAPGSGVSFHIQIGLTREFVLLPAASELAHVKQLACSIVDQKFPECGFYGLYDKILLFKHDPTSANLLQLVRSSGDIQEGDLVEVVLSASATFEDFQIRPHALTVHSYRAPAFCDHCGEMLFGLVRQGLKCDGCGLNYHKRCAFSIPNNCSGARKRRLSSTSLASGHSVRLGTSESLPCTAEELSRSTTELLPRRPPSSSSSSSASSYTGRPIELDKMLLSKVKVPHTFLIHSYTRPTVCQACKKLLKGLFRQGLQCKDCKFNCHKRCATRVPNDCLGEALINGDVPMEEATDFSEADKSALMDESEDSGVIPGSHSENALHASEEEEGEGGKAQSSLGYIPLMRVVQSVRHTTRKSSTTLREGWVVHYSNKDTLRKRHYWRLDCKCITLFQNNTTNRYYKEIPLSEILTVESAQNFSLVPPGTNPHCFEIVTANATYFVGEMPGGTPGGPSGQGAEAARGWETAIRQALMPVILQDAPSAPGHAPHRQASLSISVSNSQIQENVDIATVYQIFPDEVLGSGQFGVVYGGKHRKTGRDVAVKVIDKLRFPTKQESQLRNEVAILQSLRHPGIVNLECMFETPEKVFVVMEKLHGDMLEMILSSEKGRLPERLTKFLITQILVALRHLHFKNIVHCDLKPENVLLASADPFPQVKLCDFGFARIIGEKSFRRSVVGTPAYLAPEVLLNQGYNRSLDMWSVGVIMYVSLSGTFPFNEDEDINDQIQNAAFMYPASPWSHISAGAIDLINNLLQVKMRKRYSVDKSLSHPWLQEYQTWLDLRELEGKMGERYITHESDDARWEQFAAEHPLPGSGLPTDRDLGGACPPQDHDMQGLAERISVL
As to the kind of experiment: Inhibition of human full length PKD2 expressed in baculovirus assessed as substrate phosphorylation using fluorescence-labelled peptides as substrate at 1000 uM after 90 mins by microfluidic peptide phosphorylation assay.

Assay [6] has as its target T3, Serine/threonine-protein kinase Nek2 (Homo sapiens) (UniProt P51955).
T3 sequence (whole entry): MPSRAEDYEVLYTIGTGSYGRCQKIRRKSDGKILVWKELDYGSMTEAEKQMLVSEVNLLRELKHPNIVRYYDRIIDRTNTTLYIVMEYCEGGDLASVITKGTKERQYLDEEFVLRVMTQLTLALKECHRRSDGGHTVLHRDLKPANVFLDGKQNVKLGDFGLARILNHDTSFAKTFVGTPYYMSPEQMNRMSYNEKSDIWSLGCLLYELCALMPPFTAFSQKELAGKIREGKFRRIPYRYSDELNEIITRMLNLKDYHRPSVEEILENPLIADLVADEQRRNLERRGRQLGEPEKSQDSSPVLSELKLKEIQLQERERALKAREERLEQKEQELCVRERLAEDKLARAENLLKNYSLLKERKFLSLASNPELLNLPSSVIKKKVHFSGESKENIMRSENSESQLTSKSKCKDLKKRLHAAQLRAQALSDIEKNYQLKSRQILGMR
Nature of the assay: Inhibition of human full length NEK2 expressed in baculovirus assessed as substrate phosphorylation using fluorescence-labelled peptides as substrate at 1000 uM after 90 mins by microfluidic peptide phosphorylation assay.

Assay [7] concerns the target Glycogen synthase kinase-3 beta (Homo sapiens) (UniProt P49841). As to the kind of experiment: Inhibition of human full length GSK-3 beta expressed in baculovirus assessed as substrate phosphorylation using fluorescence-labelled peptides as substrate at 2 uM after 90 mins by microfluidic peptide phosphorylation assay.

SMILES strings stand for the structures.

Chain of Hepatocyte growth factor receptor (Homo sapiens) (P08581 whole entry, the tested form may be a part): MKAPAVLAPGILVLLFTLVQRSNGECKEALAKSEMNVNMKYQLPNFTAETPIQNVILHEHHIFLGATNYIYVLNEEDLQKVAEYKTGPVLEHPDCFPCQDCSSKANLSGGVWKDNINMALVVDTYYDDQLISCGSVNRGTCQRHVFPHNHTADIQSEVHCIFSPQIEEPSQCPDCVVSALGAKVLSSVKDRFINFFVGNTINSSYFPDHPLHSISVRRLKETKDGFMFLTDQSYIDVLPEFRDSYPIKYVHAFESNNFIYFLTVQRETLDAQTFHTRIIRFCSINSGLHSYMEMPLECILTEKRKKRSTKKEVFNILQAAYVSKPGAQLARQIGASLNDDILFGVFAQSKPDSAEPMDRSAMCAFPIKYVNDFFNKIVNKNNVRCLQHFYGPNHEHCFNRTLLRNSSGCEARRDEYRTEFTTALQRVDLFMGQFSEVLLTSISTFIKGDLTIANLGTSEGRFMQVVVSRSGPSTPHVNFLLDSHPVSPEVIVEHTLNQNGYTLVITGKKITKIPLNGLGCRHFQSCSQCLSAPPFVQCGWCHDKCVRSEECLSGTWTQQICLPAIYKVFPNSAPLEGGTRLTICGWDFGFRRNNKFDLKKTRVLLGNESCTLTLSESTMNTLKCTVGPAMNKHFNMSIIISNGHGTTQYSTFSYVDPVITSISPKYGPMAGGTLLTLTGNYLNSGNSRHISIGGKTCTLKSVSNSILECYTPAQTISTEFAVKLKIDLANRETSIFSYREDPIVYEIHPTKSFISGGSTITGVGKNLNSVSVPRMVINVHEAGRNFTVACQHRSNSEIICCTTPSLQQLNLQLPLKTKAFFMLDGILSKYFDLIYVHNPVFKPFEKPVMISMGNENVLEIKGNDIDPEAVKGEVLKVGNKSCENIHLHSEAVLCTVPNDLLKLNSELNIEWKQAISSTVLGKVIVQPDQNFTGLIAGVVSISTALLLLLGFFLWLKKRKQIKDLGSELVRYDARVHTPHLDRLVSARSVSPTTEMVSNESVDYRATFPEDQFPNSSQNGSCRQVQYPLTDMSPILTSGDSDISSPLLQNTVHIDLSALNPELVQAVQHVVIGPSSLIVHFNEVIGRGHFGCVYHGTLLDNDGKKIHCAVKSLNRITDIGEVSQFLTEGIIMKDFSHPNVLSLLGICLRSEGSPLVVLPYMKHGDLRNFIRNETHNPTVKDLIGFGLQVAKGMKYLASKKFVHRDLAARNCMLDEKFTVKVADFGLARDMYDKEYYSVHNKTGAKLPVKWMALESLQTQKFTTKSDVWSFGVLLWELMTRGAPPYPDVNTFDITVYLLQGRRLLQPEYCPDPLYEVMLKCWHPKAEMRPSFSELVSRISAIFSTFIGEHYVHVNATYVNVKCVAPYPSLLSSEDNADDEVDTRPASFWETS
Chain of Glycogen synthase kinase-3 beta (Homo sapiens) (P49841 whole entry, looked up): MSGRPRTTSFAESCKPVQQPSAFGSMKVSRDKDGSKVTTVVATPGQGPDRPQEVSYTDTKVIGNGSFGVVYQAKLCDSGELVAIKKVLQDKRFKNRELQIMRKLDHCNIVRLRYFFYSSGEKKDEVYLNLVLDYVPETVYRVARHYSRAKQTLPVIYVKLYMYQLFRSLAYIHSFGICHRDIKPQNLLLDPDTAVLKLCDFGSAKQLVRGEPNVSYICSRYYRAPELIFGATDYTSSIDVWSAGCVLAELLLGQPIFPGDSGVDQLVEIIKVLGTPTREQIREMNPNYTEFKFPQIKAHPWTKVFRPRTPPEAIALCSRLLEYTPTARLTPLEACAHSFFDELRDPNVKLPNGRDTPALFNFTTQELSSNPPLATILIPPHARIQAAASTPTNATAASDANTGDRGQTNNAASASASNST
Chain of Ribosomal protein S6 kinase alpha-5 (Homo sapiens) (O75582 whole entry, looked up): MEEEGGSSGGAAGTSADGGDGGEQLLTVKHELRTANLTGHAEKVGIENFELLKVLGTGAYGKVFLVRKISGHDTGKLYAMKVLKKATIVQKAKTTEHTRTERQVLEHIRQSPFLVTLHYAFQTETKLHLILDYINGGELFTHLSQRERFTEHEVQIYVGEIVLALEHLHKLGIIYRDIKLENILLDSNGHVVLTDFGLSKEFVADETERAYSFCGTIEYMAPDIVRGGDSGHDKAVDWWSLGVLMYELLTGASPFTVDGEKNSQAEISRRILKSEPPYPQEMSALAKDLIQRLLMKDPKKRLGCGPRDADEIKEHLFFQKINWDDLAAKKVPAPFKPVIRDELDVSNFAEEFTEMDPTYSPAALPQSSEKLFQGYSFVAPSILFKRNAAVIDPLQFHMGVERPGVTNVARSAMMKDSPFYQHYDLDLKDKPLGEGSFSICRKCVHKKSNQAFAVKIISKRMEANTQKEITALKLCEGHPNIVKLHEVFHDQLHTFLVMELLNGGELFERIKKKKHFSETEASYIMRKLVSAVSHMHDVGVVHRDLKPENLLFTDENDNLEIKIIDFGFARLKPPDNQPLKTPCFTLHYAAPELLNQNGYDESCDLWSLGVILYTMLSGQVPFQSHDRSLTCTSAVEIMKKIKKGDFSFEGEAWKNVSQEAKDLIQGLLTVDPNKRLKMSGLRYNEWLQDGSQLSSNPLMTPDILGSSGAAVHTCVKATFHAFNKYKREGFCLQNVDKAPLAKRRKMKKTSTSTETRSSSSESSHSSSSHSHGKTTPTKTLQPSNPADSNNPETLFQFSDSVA

One may read the inhibition as the relative decrease from the control value, in per cent. On to `Clc1ccc(C2(c3ccc(-c4ncnc5[nH]cnc45)cc3)CCNCC2)cc1`, for which, in assay [1], the inhibition was 9.5%. Regarding `NCCc1ccc(-c2ncnc3[nH]cnc23)cc1`, the inhibition is 19.5% in assay [2] and 86% in assay [3].

In the case of `COC(=O)c1cnc(Nc2cnc(C#N)cn2)cc1NCC1CCNCC1`, the inhibition in assay [4] was 8%.

On to `c1cnc2[nH]ccc2c1`, for which the inhibition in assay [5] was 49.5%; in assay [6], 2.5%. `NC1CCN(c2ncnc3[nH]ccc23)CC1`: the inhibition in assay [7] turned out to be 5%.

(Values after ChEMBL document CHEMBL3132769, “Fragment growing to retain or alter the selectivity of anchored kinase hinge-binding fragments” (Medchemcomm, 2014).)
